The conditions of data set [1]: at 25° C.; cited from earlier work.
The target in data set [2] is T1, recombinant human 72 kD type IV collagenase (Oncologix), APMA activated (Homo sapiens, UniProt P08253).
T1 construct: purchased Oncologix
T1 sequence (P08253 110-660): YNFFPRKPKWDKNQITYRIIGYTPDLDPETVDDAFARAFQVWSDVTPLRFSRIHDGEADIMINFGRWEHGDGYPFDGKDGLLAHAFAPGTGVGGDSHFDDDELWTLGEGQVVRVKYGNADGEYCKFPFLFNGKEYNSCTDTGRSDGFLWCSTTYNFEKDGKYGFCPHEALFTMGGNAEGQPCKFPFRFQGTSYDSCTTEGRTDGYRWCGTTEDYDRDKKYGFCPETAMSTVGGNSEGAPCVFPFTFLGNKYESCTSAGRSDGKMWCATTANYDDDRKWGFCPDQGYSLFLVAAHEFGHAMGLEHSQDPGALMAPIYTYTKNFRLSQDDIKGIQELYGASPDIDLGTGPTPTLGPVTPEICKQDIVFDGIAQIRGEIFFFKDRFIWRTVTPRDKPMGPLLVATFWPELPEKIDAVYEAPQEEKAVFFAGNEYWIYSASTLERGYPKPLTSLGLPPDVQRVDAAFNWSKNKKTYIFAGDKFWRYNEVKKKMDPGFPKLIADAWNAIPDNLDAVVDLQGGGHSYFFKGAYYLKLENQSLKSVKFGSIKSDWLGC
As to the kind of experiment: gelatinase assay, Example 11. It is filed as biochemical. The settings on record: 10 ng enzyme, 2 hours preincubation at 37° C., 20 min assay, 3H collagen substrate; read-out: IC50 for inhibition of the 72 kD collagenase type IV. The protocol:
NET-660 Collagen (Rat Type I), N-[Propionate-2-3-^3 H] Propionylated (NEN Dupont) with a specific activity of 0.4 mCi/mg, rat type I Collagen (Sigma), P-aminophenylmercuric acetate, APMA (Sigma), recombinant human 72 kD type IV collagenase (Oncologix) with a specific activity of at least 1000 μg collagen digested/hour/μg enzyme, collagenase buffer (50 mM Tris-HCl, 5 mM CaCl2, 200 mM NaCl, 0.02% Brij-35, pH 7.6), bovine serum albumin (BSA), 250 mM EDTA, and 10% TCA+0.7% tannic acid. The substrate is prepared by mixing the ^3 H collagen with the cold collagen at a 2/3 ratio and diluting in the collagenase buffer. The final assay concentration of the ^3 H collagen is 1% or between 20,000 to 40,000 cpm. Inhibitors are prepared just prior to use by dissolving in DMSO (final assay concentration<1%) or collagenase buffer.
The 72 kD collagenase enzyme is activated with 0.5 mM APMA for 30 min. at 37° C. and 10 ng of enzyme per assay is used. Inhibitors are preincubated with activated enzyme for 2 hours at 37° C. in collagenase buffer. Substrate is then added to enzyme inhibitor mix and the assay is run for 20 min at 37° C. […] Undigested substrate is precipitated with the TCA/tannic acid solution and soluble counts are determined in a scintillation counter.

In another data set the test system is metastases. The conditions noted are these: in vivo; cited from earlier work.
For a further data set, the system named is V-79A fibroblasts. The conditions noted are these: tissue culture; cited from earlier work.
In data set [3] the target is T2, E. coli recombinant human 72 kD collagenase type IV (MMP-2), pAPMA activated (Homo sapiens, UniProt P08253).
T2 construct: made in house; host or cells: E. coli
T2 sequence (P08253 110-660): T1 sequence (P08253 110-660)
As to the kind of experiment: gelatinase assay (3H-gelatin degradation), Example 9. It counts as biochemical. The conditions noted are these: 100 ng activated enzyme, 4 hrs preincubation with inhibitor at 37° C., 3H-gelatin substrate; read-out: IC50, inhibition of collagenase type IV gelatinase activity. The text has this:
Type IV collagenases are highly efficient in digesting gelatin. Inhibition of the gelatinase activity of human recombinant collagenase type IV was used as an initial assay for testing the bis(dioxopiperazine)s. The recombinant 72 kD collagenase IV used in the gelatinase assays was made in E. coli from a cDNA insert obtained from Dr. William Stetler-Stevenson (NCI). The protein runs at 72 kD on SDS-PAGE, has gelatinolytic activity in zymogram, is activated by pAPMA, is precipitated by a monoclonal anti-peptide antibody to the pro-region of the 72 kD enzyme, and is inhibited by TIMP-2. Rat tail ^3 H-collagen I (Dupont-NEN) is denatured to become gelatin by heating at 60° C. for 20 min. E. coli recombinant human 72 kD collagenase type IV is activated by incubation with 1 mM pAPMA for 1 hr. at 37° C. 100 ng of activated enzyme is added to each tube containing 50 mM Tris-HCl pH 7.5, 5 mM CaCl2 and 0.005% Brij-35 and pre-incubated with inhibitor or solvent control for 4 hrs. at 37° C. in a total of 25 μl. 10,000 cpm of ^3 H-gelatin substrate in 30 μl is added (final volume of 55 μl per sample) and the reaction mixture is incubated at 37° C. for 2 to 16 hrs. […] Enzyme activity is calculated from the radioactivity in the supernatant and activity of the compounds expressed as percent solvent control.

In data set [4] the test system is MDA-MB-231 cells (human breast carcinoma). Kind of data set: in vitro invasion assay through matrigel (Transwell). It is filed as cell-based. The conditions noted are these: preliminary screen. On the procedure:
(§1) Razoxane, various bis(hydroxylated)(2,6-dioxopiperazine)s, and various hydrophobic analogs were tested in an in vitro assay for inhibition of tumor cell penetration of a reconstituted basement membrane, matrigel, isolated from the Englegbreth-Holm-Swarm (EHS) tumor (disclosed in Kleinman et al., Biochem. (1982), 24, 6188-6193) first described by Albini et al, Cancer Res. (1987) 47, 3234-3245. An 8 μm pore filter coated with matrigel separates a lower compartment containing a chemoattractant and an upper compartment containing the cells and test compound. In particular, the following compounds were tested: razoxane, (1α, 2α, 4α, 5α)-4,4'-(4,5-dihydroxy-1,2-cyclohexanediyl)bis(2,6-piperazinedione); (1α, 2α, 4β, 5β)-4,4'-(4,5-dihydroxy-1,2-cyclohexanediyl)bis(2,6-piperazinedione);(1β, 2α,4α,5α)-4,4'-(4,5-dihydroxy-1,2-cyclohexanediyl)bis(2,6-piperazinedione); (1β, 2α, 4α,5β)-4,4'-(4,5-dihydroxy-1,2-cyclohexanediyl)bis(2,6piperazinedione); (1α, 2β, 4α,5β)-4,4'-(4,5-dihydroxy-1,2cyclohexanediyl)bis(2,6-piperazinedione); N,N'-cyclohexane-1,2-diylbis[N(2-ethoxy-2-oxoethyl)]glycine; N,N'-4-cyclohexene-1,2-diylbis[N-(2-ethoxy-2-oxoethyl)-glycine ester; (3aα, 5β, 6β, 7aα)-4,4'-(hexahydro-2,2-dimethyl1,3-benzodioxole-5,6-diyl)bis(2,6-piperazinedione); (3aα, 5α, 6α, 7aα)-4,4'-(hexahydro-2,2-dimethyl-1,3-benzodioxole-5,6-diyl)bis(2,6- piperazinedione); (3aα, 5α, 6β, 7aα)-4,4'-(hexahydro-2,2-dimethyl-1,3-benzodioxole-5,6-diyl)bis-2,6- piperazinedione; (3aα, 5β, 6α, 7aβ)-4,4'-(hexahydro-2,2dimethyl-1,3-benzodioxole-5,6-diyl)bis(2,6-piperazinedione); and (3aα, 5α, 6β, 7aβ)-4,4'-(hexahydro-2,2-dimethyl-1,3-benzodioxole-5,6-diyl) bis(2,6piperazinedione). Metastatic cells are able to degrade the basement membrane protein barrier and migrate through the pores of the filter whereas non-metastatic cells remain on the upper surface. The cells that pass to the under side of the filter are then counted under a microscope. […] Variations of this assay have been used to correlate this in vitro invasion with metastatic potential in vivo (Albini et al. (Id.); Hendrix et al. Cancer Letters (1987); 38, 127-247; Repesh L. A., Invasion Metastasis (1989) 9, 192-208 to select for more highly invasive cells (Teranova et al., Proc. Nat. Acad. Sci., (1986), 83, 465, 464; Tullberg et al., Invasion Metastasis, (1989), 9, 13-26; Sefer et al., Biotechniques, (1990), 9, 324-331), and to test compounds for inhibition (Nakajima et al., Cancer Res. (1989), 49, 1698-1756).
(§2) This method has been improved to increase the number of assays which may be performed and analyzed per day. In particular, such improvement comprises the use of disposable Transwells (Costar) units described by Repesh et al., Invasion Metastasis, (1989), 9, 192-208, which consist of an 8 μm pore filter attached to an insert that fits in a 24 well culture plate. Matrigel concentration is titrated from zero to complete inhibition of motility of each invasive cell line used in the assay and for each batch of matrigel. The matrigel concentration which yields 50% or greater inhibition of motility in a 6 hr assay (usually from 15 to 50 μg of protein per filter) is chosen for determination of invasion. Motility of cells through the 8 μm filters is not by passive diffusion since the pore size is smaller than the cells, and is determined in the same chamber in the absence of matrigel. Motility is stimulated two-fold by the presence of fibroblast conditioned medium (3T3 cells) as a chemoattractant (data not shown). The cell lines used are HT-1080, a human fibrosarcoma, and MDA-MB-231, a human breast carcinoma (both available from the American Type Tissue Culture). These cell lines express both the 72 kD and the 92 kD collagenase type IV as determined by zymography (data not shown).
(§3) For inhibition studies, 5×10^5 cells are plated in 200 μl of DMEM+0.1% BSA+the inhibitor (or appropriate solvent control) into the upper chamber of the Transwell. […]

The subject of data set [5] is HT-1080 cells (human fibrosarcoma). The data set is described as above. It is filed as cell-based. The protocol: as §1, §2, §3
Another data set concerns B16-F10 melanoma cells. The settings on record: pretreatment of B16-F10 cells at 2, 20 and 100 μM; cited from earlier work.
The next data set relates to S180 tumors. The settings on record: therapeutic index in vivo; cited from earlier work.
A further data set deals with mouse L cell. The settings on record: l cells; read-out: ID50 inhibition of colony formation; cited from earlier work.
The test system of another data set is mouse-embryo fibroblasts. The settings on record: cited from earlier work.

Structures are written as SMILES. ≈ marks a conversion by molar mass, not a printed value.

Usually inhibition stands for the percentage by which the read-out fell short of the control.

Take `O=C1CN([C@@H]2C[C@@H](O)[C@@H](O)C[C@@H]2N2CC(=O)NC(=O)C2)CC(=O)N1` [Compound 89, (1β, 2β, 4α, 5α)-4,4'-(4,5-dihydroxy-1,2-cyclohexanediyl)bis(2,6-piperazinedione)]: in data set [1], the solubility in water is 29.3 mg/mL (≈ 86.1 mM).

As to `O=C(O)CN(CCN(CC(=O)O)CC(=O)O)CC(=O)O` [EDTA, ethylenediaminetetraacetic acid], the IC50 in data set [2] amounted to 300 µM.

Take `O=C1CN([C@@H]2C[C@@H]2N2CC(=O)NC(=O)C2)CC(=O)N1` [cis-16, cis-4,4'-(cyclopropanediyl) bis(2,6)dioxopiperazine]: the “effect on development of metastases” value in the data set on metastases was “inhibits”.

Regarding `O=C1CN([C@@H]2C[C@H]2N2CC(=O)NC(=O)C2)CC(=O)N1` (relative stereo) [trans-15], the “effect on development of metastases” value in the data set on metastases was “stimulates”. In the data set on V-79A fibroblasts, the cytotoxic activity entry was “inactive”.

`CC1(C)O[C@H]2C[C@@H](N3CC(=O)NC(=O)C3)[C@H](N3CC(=O)NC(=O)C3)C[C@H]2O1` (relative stereo) [Compound 78]: the IC50 in data set [3] was found to be 45 µM. Also, the inhibition of invasion result in data set [4] and in [5] (preliminary screen) was “inhibit invasion” in each case. The “effect on cell motility” value in data set [4] (no matrigel) is “without inhibiting cell motility”; in data set [5] (preliminary screen, no matrigel), “without inhibiting cell motility”. Also, the inhibition at 290 µM in data set [5] (Homo sapiens, HT-1080, at 290 μM, 6 hour assay, read-out: maximum inhibition of invasion) worked out at 25%.

`O=C1CN2CCN3CC(=O)NC(=O)[C@H]3[C@H]2C(=O)N1` [cis-21]: in the data set with B16-F10 melanoma cells, the “metastasis to the lungs after pretreatment of the cells” value is on record as “ineffective”.

Consider `CC(C(C)N1CC(=O)NC(=O)C1)N1CC(=O)NC(=O)C1` (stereo not shown) [ICRF-193], for which the “calculated ratio of maximum tolerated dose to the dose required for 90% inhibition of S180 tumor growth” value in the data set with S180 tumors is listed as 6.7. In the data set on mouse L cell, the IC50 is 0.09 µM. The “IC50, inhibition of [3H]thymidine incorporation” value in the data set on mouse-embryo fibroblasts was 0.035 µg/mL.

For the compound `O=C1CN2CCN3CC(=O)NC(=O)[C@H]3[C@@H]2C(=O)N1` (relative stereo) [trans-20], in the data set with B16-F10 melanoma cells, the “metastasis to the lungs after pretreatment of the cells” value is on record as “significantly reduces the metastasis”.

The values are drawn from patent publication US5866570A, “Treatment of vascular leakage and related syndrome such as septic shock by administration of metalloproteinase inhibitors” (Wisconsin Alumni Research Foundation, priority 1994, dated 1999).
